{"source": "patent US20230270754A1", "about": "“COMBINATION THERAPY FOR INHALATION ADMINISTRATION” (Chemo Research, S.L., priority 2020, published 2023)", "format_in_all_cases": "physicochemical", "key": {"[1]": {"assay": "APSD by NGI, Example 3 Foster pMDI vs soft mist inhaler", "description": "(§1) The in vitro aerodynamic assessment was carried using a next generation impactor, NGI (Copley Scientific Ltd), equipped with a mouthpiece adapter for the insertion of the inhaler, an induction port and an internal filter holder (IFH) to capture the smaller particles. The product was tested as per procedure detailed in the European and US Pharmacopeia for Soft Mist Inhalers and pMDIs.\nThe NGI was cooled to 5° C. for at least 75 min. The cooling chamber was then opened and, after 30 minutes, the NGI was connected to a HCP5 vacuum pump (Copley Scientific Ltd). For each experiment, ten doses were discharged into the NGI at 30 L/min for 5 seconds each.\n(§2) After the required actuations, the particles deposited on the different surfaces of the impactor were extracted using a suitable diluent (methanol) and with the help of a Gentle Rocker (Copley Scientific Ltd). Active ingredients were then quantified by HPLC, with the same methods used for the Example 1.\nData analysis. The NGI was plotted against the stage cut-off diameter as the mass recovered from the induction port to the filter. Fine particle fraction (FPF %) and mass median aerodynamic diameter (MMAD) were determined from the analysis of the NGI data.\n(§3) Results are expressed as the mean value of two NGIs analysis."}, "[2]": {"assay": "APSD by NGI, Example 5 Symbicort pMDI vs soft mist inhaler", "description": "The in vitro aerodynamic particle size distribution of both formulations was evaluated using an impactor, the next generation impactor, NGI (Copley Scientific Ltd) equipped with a mouthpiece adapter for the insertion of the inhaler, an induction port and an internal filter holder (IFH) to capture the smaller particles. The product was tested as per procedure detailed in the European and US Pharmacopoeia for Soft Mist Inhalers and pMDIs.\n(§4) The NGI was cooled to 5° C. for at least 75 min. The cooling chamber was then opened and, after 30 minutes, the NGI was connected to a HCP5 vacuum pump (Copley Scientific Ltd). For each experiment, ten doses were discharged per NGI actuated at 28.3 L/min for 5 seconds each.\nas §2, with “(75/25 v/v MeOH/water)” for “(methanol)”, “described in example 4.” for “used for the Example 1.”\nData analysis. The NGI was plotted against the stage cut-off diameter as the mass recovered from the induction port to the filter. Fine particle fraction (FPF %), and mass median aerodynamic diameter (MMAD) were determined from the analysis of the NGI data.\nas §3"}, "[3]": {"assay": "Delivered dose by dose unit sampling apparatus (DUSA), Example 2", "text": "Active pharmaceutical ingredients (APIs) deposited in the sampling apparatus were quantitatively recovered with a DUSA shaker (Copley Scientific Ltd) and methanol. APIs were, then, quantified by HPLC with the same methods described in Example 1.\nResults are expressed as the average of 5 measurements."}, "[4]": {"assay": "APSD by NGI, Example 4 budesonide/formoterol 70% vs 96% ethanol, soft mist inhaler", "description": "Typical System Suitability Criteria applies as per USP <621> requirements.\nFor the APSD evaluation Formulation 1 and 2 were filled into cartridges compatible with a soft mist inhaler (Respimat®). The in vitro aerodynamic particle size distribution of both formulations was evaluated using an impactor, the next generation impactor, NGI (Copley Scientific Ltd) equipped with a mouthpiece adapter for the insertion of the inhaler, an induction port and an internal filter holder (IFH) to capture the smaller particles. The product was tested as per procedure detailed in the European pharmacopoeia chapter 2.9.18 (apparatus E) and US Pharmacopeia chapter <601> (apparatus 6) for Soft Mist Inhalers.\nas §4\nAfter the required actuations, the particles deposited on the different surfaces of the impactor were extracted using a suitable diluent (75/25 v/v MeOH/water) and with the help of a Gentle Rocker (Copley Scientific Ltd). Active ingredients were then quantified by HPLC as described above.\n(§5) Data analysis. The NGI results were plotted against the stage cut-off diameter as the mass recovered from the induction port to the filter. Fine particle fraction (FPF %), mass median aerodynamic diameter (MMAD), fine particle dose (FPD) were determined from the analysis of the NGI data.\nas §3"}, "[5]": {"assay": "APSD by NGI, Example 2 Trimbow pMDI vs soft mist inhaler", "description": "as §1, with “European pharmacopoeia chapter 2.9.18 (apparatus E)” for “European”, “Pharmacopeia chapter <601> (apparatus 6)” for “Pharmacopeia”, “Inhalers.” for “Inhalers and pMDIs.”\nThe NGI was cooled to 5° C. for at least 75 min. The cooling chamber was then opened and, after 30 minutes, the NGI was connected to a HCP5 vacuum pump (Copley Scientific Ltd). […]\nAfter the required actuations, the particles deposited on the different surfaces of the impactor were extracted using a suitable diluent (methanol) and with the help of a Gentle Rocker (Copley Scientific Ltd).\nas §5, §3"}, "[6]": {"assay": "Active ingredient content after filtration (assay by Reverse Phase HPLC), Example 1", "conditions": "triple combination BDP/GB/FF; for Formulation 1 Assay (%) active ingredient content compared to the theoretical amount: Formulation 1: 70% Ethanol; for Formulation 2 Assay (%) active ingredient content compared to the theoretical amount: Formulation 2: 96% Ethanol", "description": "Both formulations were filtrated, and individual assay of all active ingredients were tested by Reverse Phase HPLC.\nThree independent Reverse Phase HPLC analytical methods were used for the determination of each active ingredient in all the analyses."}, "[7]": {"conditions": "Soft Mist Inhaler (1 actuation), double combination BDP/FF in 96% ethanol"}, "[8]": {"conditions": "Trimbow pMDI (2 actuations), table title: Foster pMDI (2 actuation)"}, "[9]": {"conditions": "Soft Mist Inhaler (1 actuation), budesonide/formoterol in 96% ethanol"}, "[10]": {"conditions": "Soft Mist Inhaler (Respimat) 1 actuation, triple combination in 96% ethanol"}, "[11]": {"conditions": "Soft Mist Inhaler (1 actuation), triple combination in 96% ethanol"}}}
{"molecule": "COc1ccc(C[C@@H](C)NC[C@H](O)c2ccc(O)c(NC=O)c2)cc1.O.O.O=C(O)/C=C/C(=O)O", "note": "(racemic) [Formoterol Fumarate]", "values": [{"measurement": "FPF (%)", "setting": "[1]; [7]", "result": 90.4, "unit": "%"}, {"measurement": "MMAD (μm)", "setting": "[1]; [7]", "result": 1.2, "unit": "μm"}, {"measurement": "FPF (%)", "setting": "[1]; [8]", "result": 45.8, "unit": "%"}, {"measurement": "MMAD (μm)", "setting": "[1]; [8]", "result": 1.2, "unit": "μm"}, {"measurement": "FPF (%)", "setting": "[2]; [9]", "result": 89.7, "unit": "%"}, {"measurement": "MMAD (μm)", "setting": "[2]; [9]", "result": 1.1, "unit": "μm"}, {"measurement": "FPF (%)", "setting": "[2]; Symbicort pMDI (1 actuation)", "result": 58.7, "unit": "%"}, {"measurement": "MMAD (μm)", "setting": "[2]; Symbicort pMDI (1 actuation)", "result": 3.3, "unit": "μm"}, {"measurement": "DUSA (μg) delivered dose", "setting": "[3]; [10]", "result": 6.1, "unit": "µg"}, {"measurement": "DUSA (μg) delivered dose", "setting": "[3]; Trimbow pMDI 1 actuation", "result": 5.7, "unit": "µg"}, {"measurement": "FPD", "setting": "[4]; Formulation 1 (70% EtOH)", "result": 3.3, "unit": "µg"}, {"measurement": "FPF", "setting": "[4]; Formulation 1 (70% EtOH)", "result": 68.4, "unit": "%"}, {"measurement": "MMAD", "setting": "[4]; Formulation 1 (70% EtOH)", "result": 2.7, "unit": "μm"}, {"measurement": "FPF", "setting": "[4]; Formulation 2 (96% EtOH)", "result": 89.7, "unit": "%"}, {"measurement": "FPD", "setting": "[5]; [11]", "result": 5.3, "unit": "µg"}, {"measurement": "FPF", "setting": "[5]; [11]", "result": 87.8, "unit": "%"}, {"measurement": "IP (induction port deposition)", "setting": "[5]; [11]", "result": 8.3, "unit": "%"}, {"measurement": "FPD", "setting": "[5]; Trimbow pMDI (2 actuations)", "result": 5.2, "unit": "µg"}, {"measurement": "FPF", "setting": "[5]; Trimbow pMDI (2 actuations)", "result": 44.6, "unit": "%"}, {"measurement": "IP (induction port deposition)", "setting": "[5]; Trimbow pMDI (2 actuations)", "result": 53.4, "unit": "%"}, {"measurement": "Formulation 1 Assay (%) active ingredient content compared to the theoretical amount", "setting": "[6]", "result": 93.8, "unit": "%"}, {"measurement": "Formulation 2 Assay (%) active ingredient content compared to the theoretical amount", "setting": "[6]", "result": 100.3, "unit": "%"}]}
{"molecule": "CCC(=O)OCC(=O)[C@@]1(OC(=O)CC)[C@@H](C)C[C@H]2[C@@H]3CCC4=CC(=O)C=C[C@]4(C)[C@@]3(Cl)[C@@H](O)C[C@@]21C", "note": "[Beclometasone Dipropionate, 9-chloro-11β,17,21-trihydroxy-16β-methylpregna-1,4-diene-3, 20-dione 17,21-dipropionate]", "values": [{"measurement": "FPF (%)", "setting": "[1]; [7]", "result": 91.3, "unit": "%"}, {"measurement": "MMAD (μm)", "setting": "[1]; [7]", "result": 1.1, "unit": "μm"}, {"measurement": "FPF (%)", "setting": "[1]; [8]", "result": 49.4, "unit": "%"}, {"measurement": "MMAD (μm)", "setting": "[1]; [8]", "result": 1.2, "unit": "μm"}, {"measurement": "DUSA (μg) delivered dose", "setting": "[3]; [10]", "result": 97.1, "unit": "µg"}, {"measurement": "DUSA (μg) delivered dose", "setting": "[3]; Trimbow pMDI 1 actuation", "result": 98.4, "unit": "µg"}, {"measurement": "FPD", "setting": "[5]; [11]", "result": 91.7, "unit": "µg"}, {"measurement": "FPF", "setting": "[5]; [11]", "result": 87.9, "unit": "%"}, {"measurement": "IP (induction port deposition)", "setting": "[5]; [11]", "result": 8.3, "unit": "%"}, {"measurement": "MMAD", "setting": "[5]; [11]", "result": 1.2, "unit": "μm"}, {"measurement": "FPD", "setting": "[5]; Trimbow pMDI (2 actuations)", "result": 86.0, "unit": "µg"}, {"measurement": "FPF", "setting": "[5]; Trimbow pMDI (2 actuations)", "result": 42.9, "unit": "%"}, {"measurement": "IP (induction port deposition)", "setting": "[5]; Trimbow pMDI (2 actuations)", "result": 52.9, "unit": "%"}, {"measurement": "MMAD", "setting": "[5]; Trimbow pMDI (2 actuations)", "result": 1.2, "unit": "μm"}, {"measurement": "Formulation 1 Assay (%) active ingredient content compared to the theoretical amount", "setting": "[6]", "result": 40.1, "unit": "%"}, {"measurement": "Formulation 2 Assay (%) active ingredient content compared to the theoretical amount", "setting": "[6]", "result": 99.7, "unit": "%"}]}
